In patent publication US9815868B2, “Peptides binding to parallel-stranded G-quadruplexes” (NANYANG TECHNOLOGICAL UNIVERSITY, priority 2013, dated 2017):

Key:
G-quadruplexes = settings: literature statement; cited from earlier work
[1] = test system: parallel G-quadruplexes DNA and RNA (93del, CEB25, Pu24T, CEB1, TERC18, 12 nt TER, 10 nt TER); assay: Native gel electrophoresis of Rhau55 with parallel G-quadruplexes; format: binding; settings: various parallel G-quadruplexes DNA and RNA; DNA 100 μM, 70 mM KCl, 20 mM phosphate pH 6.8
Protocol: The ratio between Rhau55 and Nucleic acids is indicated on top of each lane. DNA concentrations were fixed at 100 μM, in 70 mM KCL and 20 mM phosphate buffer (pH=6.8).
Rhau55 was expressed in Escherichia coli. The binding of Rhau55 to different G-quadruplexes nucleic acids topology was first tested using gel electrophoresis.
(§1) Rhau55 binds to various parallel G-quadruplexes DNA and RNA (FIGS. 1 and 3-5) but not to various forms of non-parallel G-quadruplexes (FIGS. 1 and 6).

[2] = target: Htelo1 hybrid "3+1" form 1 G-quadruplex; assay: Quantitative gel mobility shift assay, Htelo1 in dilute condition; set-up: species or system human; settings: Htelo1 hybrid "3+1" form 1, dilute condition; read-out: apparent binding
Protocol: (§2) (A) T95_2 T and Htelo1 at a concentration of 100 nM were incubated for 15 minutes at room temperature with an increasing concentration of Rhau55. (B) Quantification of gel electrophoresis assays bands of T95_2 T (black dot) and Htelo1 in dilute (open square) and crowding condition (black cross).
(§3) Subsequently, a quantitative analysis of the interaction between Rhau55 and three G-quadruplexes was performed using gel electrophoresis (FIG. 4). The analysis indicated a dissociation constant of 1029 nM and 989 nM for the parallel-type form of Htelo1 (under crowded condition) and the single, loop propeller-type T95_2 T, respectively, consistent with previous published data for the full-length protein (Tran H et al. (2004) Mol Cell, 13, 101). In contrast an apparent binding of >10 μM was found with the hybrid “3+1” form 1, and an estimated Kd over 10 μM was found for Htelo2, Htelo3 and Hetol4 non-parallel forming sequences, highlighting a net preference for the human telomeric sequences forming a parallel-type G-quadruplex. From the data little effect on three (Htelo1, parallel form) and single (T95_2T) loop size was observed on Rhau55 binding affinity.

[3] = target: Htelo4 non-parallel G-quadruplex; assay: Gel electrophoresis binding, Htelo4; set-up: species or system human; settings: Hetol4 non-parallel forming sequence; read-out: estimated Kd
Protocol: (§4) DNA concentrations were fixed at 100 nM and Rhau55 was 1 μM, in 70 mM KCL and 20 mM phosphate buffer (pH=6.8).
(§5) To confirm that the observed selective effect was based on the structure rather than sequence, the binding of Rhau55 was tested using the human telomeric sequences in K^+-containing solution, with and without crowded condition (40% v/v PEG200). In diluted solutions the human telomeric sequences Htelo1, Htelo2, Htelo3 and Helo4 form a distinct and non-parallel G-quadruplex (Luu K N et al. (2006) J Am ChemSoc, 128(30), 9963-9970; Phan A T et al. (2006) Nucleic Acids Res, 34(19), 5715-5719; Lim K W et al. (2009) J Am ChemSoc, 131(12), 4301-430; Lim K W et al. (2009) Nucleic Acids Res, 37(18), 6239-6248), however in crowded conditions those sequences form a propeller-type parallel stranded G-quadruplex.
(§6) Subsequently, a quantitative analysis of the interaction between Rhau55 and three G-quadruplexes was performed using gel electrophoresis (FIG. 4). The analysis indicated a dissociation constant of 1029 nM and 989 nM for the parallel-type form of Htelo1 (under crowded condition) and the single, loop propeller-type T95_2 T, respectively, consistent with previous published data for the full-length protein (Tran H et al. (2004) Mol Cell, 13, 101). […]

[4] = target: T95_2T (single loop propeller-type parallel G-quadruplex); assay: Quantitative gel mobility shift assay of Rhau55 binding to T95_2T; settings: gel electrophoresis, DNA 100 nM, read-out: dissociation constant
Protocol: as §2, §3

[5] = target: parallel-type form of Htelo1 (under crowded condition); assay: Quantitative gel mobility shift assay, Htelo1 in crowding condition (40% PEG); format: binding, human; settings: parallel-type form of Htelo1 under crowded condition (40% PEG); gel electrophoresis; read-out: dissociation constant
Protocol: as §2, §5
Subsequently, a quantitative analysis of the interaction between Rhau55 and three G-quadruplexes was performed using gel electrophoresis (FIG. 4). […]

[6] = test system: human telomeric sequences Htelo1-Htelo4 G-quadruplexes; assay: Gel shift assay of human telomeric sequences with and without crowded condition (40% v/v PEG200); format: binding; settings: human telomeric sequences in K+ solution, dilute (non-parallel) vs crowded 40% v/v PEG200 (parallel)
Protocol: as §4, §5

[7] = target: Htelo3 non-parallel G-quadruplex; assay: Gel electrophoresis binding, Htelo3; set-up: species or system human; settings: Htelo3 non-parallel forming sequence; read-out: estimated Kd
Protocol: as §4, §5, §6

[8] = test system: mixture of T95_2T (propeller parallel form) and HT1 (non-parallel); assay: NMR imino proton spectra of a mixture of HT1 and T95_2T with Rhau55; format: binding; settings: Rhau55 added to mixture of T95_2T (parallel) and HT1 (non-parallel)
Excerpt: as §1

[9] = target: Htelo2 non-parallel G-quadruplex; assay: Gel electrophoresis binding, Htelo2; set-up: species or system human; settings: Htelo2 non-parallel forming sequence; read-out: estimated Kd
Protocol: as §4, §5, §6

| binding in gel electrophoresis [1] | Kd [2] | Kd [3] | Kd [4] | Kd [5] | Kd [7] | Kd [9] | Compound | dissociation constant Kd (G-quadruplexes) | binding in gel shift assay [6] | effect on NMR imino proton peaks [8] |
| --- | --- | --- | --- | --- | --- | --- | --- | --- | --- | --- |
|  |  |  |  |  |  |  | C[n+]1cc(NC(=O)c2ccc3ccc4ccc(C(=O)Nc5cc6ccccc6[n+](C)c5)nc4c3n2)cc2ccccc21 [Phen-DC3] | nanomolar range |  |  |
| binds | > 10 µM | > 10 µM | 0.989 µM | 1.03 µM | > 10 µM | > 10 µM | Rhau55: G-quadruplex binding domain of human helicase Rhau (DHX36), N-terminal residues 53 to 105, expressed in Escherichia coli (HPGHLKGREIGMWYAKKQGQKNKEAERQERAVVHMDERREEQIVQLLNSVQAK; UniProt Q9H2U1 53-105, looked up, fragment) |  | binds significantly only to a parallel-type G-quadruplex | only affect the peaks of the former form |
